# Experimental data: patent US10059694B2, “2-aminopyrimidine compound and pharmaceutical composition and use thereof” (Shanghai Institute of Materia Medica, Chinese Academy of …, priority 2014, dated 2018)
# pIC50: −log10 of the molar value. Where two headings read alike, the source gives them in different places.
# Assays:
# [1] = test system: human epidermal carcinoma A431 cell line; assay: SRB proliferation assay, A431 cells; type: cell-based; conditions: read-out: IC50 A431
# Protocol: (§1) Cell lines: human epidermal carcinoma A431 cell line and human non-small cell lung cancer NCI-H1975 cell line was purchased from the American Standard Biology Collection Center (ATCC).
# (§2) Methods: sulforhodamine B (SRB) method, which was as follows: certain number of different tumor cells in logarithmic growth phase were inoculated on 96-well culture plates. After cultured for 24 h to cell adherence, different concentrations of the test compounds of the invention were added. Each concentration was provided with three wells, and a corresponding concentration of DMSO solvent control and a cell-free zeroing well were set. After the cells were treated with the medicine for 72 h, the culture medium was discarded and 100 μL of 10% pre-cooled trichloroacetic acid solution was added to fix the cells. After placed for 1 h at 4° C., it was washed for 5 times with distilled water and dried naturally. Then 100 μL SRB (4 mg/mL) (Sigma) solution was added and stained for 15 min at room temperature. The staining solution was discarded and washed for 5 times with 1% glacial acetic acid and dried. Finally, 150 μL of 10 mM Tris solution (pH 10.5) was added and the OD value was measured at 515 nm with adjustable wavelength microplate enzyme-labeled instrument (VERSAmax™, Molecular Device Corporation, Sunnyvale, Calif., USA).
# [2] = test system: human non-small cell lung cancer NCI-H1975 cell line; assay: SRB proliferation assay, NCI-H1975 cells; type: cell-based; conditions: read-out: IC50 NCI-H1975
# Protocol: as §1
# as §2, with “USA). […] Based on the inhibitory effect of the 2-aminopyrimidine compounds on the growth of these cells, the half maximal inhibitory concentration (IC50) values were calculated, as shown in Table 2.” for “USA).”
# EGFR^wt = target: T1, EGFR^wt (Homo sapiens, UniProt P00533); assay: kinase inhibitory activity test (ELISA), EGFR^WT; type: biochemical; conditions: ATP 5 μM, 1 hour at 37° C.
# T1 construct: purchased Millipore
# Protocol: (§3) The enzyme substrate poly (glutamic acid, tyrosine)4:1 (Sigma) was diluted with potassium-free PBS (10 mM sodium phosphate buffer, 150 mM NaCl, pH 7.2-7.4) to 20 μg/mL, plate coated with 125 μL/well, reacted for 12-16 hours at 37° C. After the liquid in the wells was discarded, the plates were washed three times with 200 μL/well of T-PBS (PBS containing 0.1% Tween-20), and each time for 5 minutes, and then dried for 1-2 hours in an oven at 37° C. 50 μL of ATP solution diluted with reaction buffer (50 mM HEPES pH 7.4, 50 mM MgCl2, 5 mM MnCl2, 0.2 mM Na3VO4, 1 mM DTT) was added into each well and the final concentration was 5 μM. The compounds were diluted with 1% DMSO to suitable concentrations and were added at 10 μL/well. […] The above reaction system was reacted for 1 hour at 37° C. shaking table (100 rpm). Control wells with no enzyme and control wells with DMSO solvent were set in each experiment. After the reaction was completed, the plates were washed three times with T-PBS. The anti-phosphotyrosine primary antibody PY99 (Santa Cruz) was added at 100 μL/well and the antibody was diluted with T-PBS containing BSA 5 mg/mL by 1:1000. The mixture was reacted for 0.5 h at 37° C. shaking table, the plates were washed three times with T-PBS. The secondary antibody which was horseradish peroxidase-labeled goat anti-mouse IgG was added at 100 μL/well (the antibody was diluted with T-PBS containing BSA 5 mg/mL by 1:2000). The mixture was reacted for 0.5 h at 37° C. shaking table, the plates were washed three times with T-PBS. 2 l/mL of OPD coloring solution was added at 100 μL/well (diluted with 0.1 M citric acid-sodium citrate buffer (pH=5.4) containing 0.03% H2O2) and dark reacted for 1 to 10 minutes at 25° C. 2 M H2SO4 was added at 50 μL/well to terminate the reaction. Reading was carried out with an adjustable wavelength microplate enzyme-labeled instrument SPECTRA MAX 190 at 490 nm wavelength.
# (§4) The IC50 value was calculated by the four-parameter fitting of the suppression curve.
# IGF-1R = target: T2, IGF-1R (Homo sapiens, UniProt P08069); assay: kinase inhibitory activity test (ELISA), IGF-1R; type: biochemical; conditions: ATP 5 μM, 1 hour at 37° C.
# T2 construct: purchased Millipore
# Protocol: The enzyme substrate poly (glutamic acid, tyrosine)4:1 (Sigma) was diluted with potassium-free PBS (10 mM sodium phosphate buffer, 150 mM NaCl, pH 7.2-7.4) to 20 μg/mL, plate coated with 125 μL/well, reacted for 12-16 hours at 37° C. After the liquid in the wells was discarded, the plates were washed three times with 200 μL/well of T-PBS (PBS containing 0.1% Tween-20), and each time for 5 minutes, and then dried for 1-2 hours in an oven at 37° C. 50 μL of ATP solution diluted with reaction buffer (50 mM HEPES pH 7.4, 50 mM MgCl2, 5 mM MnCl2, 0.2 mM Na3VO4, 1 mM DTT) was added into each well and the final concentration was 5 μM. The compounds were diluted with 1% DMSO to suitable concentrations and were added at 10 μL/well. Then different types of tyrosine kinase proteins (including EGFR^wt, EGFR^T790M/L858R and IGF-1R, purchased from Millipore) diluted with 40 μL of reaction buffer were added. The above reaction system was reacted for 1 hour at 37° C. shaking table (100 rpm). Control wells with no enzyme and control wells with DMSO solvent were set in each experiment. After the reaction was completed, the plates were washed three times with T-PBS. The anti-phosphotyrosine primary antibody PY99 (Santa Cruz) was added at 100 μL/well and the antibody was diluted with T-PBS containing BSA 5 mg/mL by 1:1000. The mixture was reacted for 0.5 h at 37° C. shaking table, the plates were washed three times with T-PBS. The secondary antibody which was horseradish peroxidase-labeled goat anti-mouse IgG was added at 100 μL/well (the antibody was diluted with T-PBS containing BSA 5 mg/mL by 1:2000). The mixture was reacted for 0.5 h at 37° C. shaking table, the plates were washed three times with T-PBS. 2 l/mL of OPD coloring solution was added at 100 μL/well (diluted with 0.1 M citric acid-sodium citrate buffer (pH=5.4) containing 0.03% H2O2) and dark reacted for 1 to 10 minutes at 25° C. 2 M H2SO4 was added at 50 μL/well to terminate the reaction. Reading was carried out with an adjustable wavelength microplate enzyme-labeled instrument SPECTRA MAX 190 at 490 nm wavelength.
# as §4
# EGFR^T790M/L858R = target: T3, EGFR^T790M/L858R (Homo sapiens, UniProt P00533, L858R/T790M); assay: kinase inhibitory activity test (ELISA), EGFR^T790M/L858R; type: biochemical; conditions: for pIC50: ELISA, ATP 5 μM, 1 hour at 37° C.
# T3 construct: purchased Millipore
# Protocol: as §3, §4
# T1 sequence (P00533 25-1210): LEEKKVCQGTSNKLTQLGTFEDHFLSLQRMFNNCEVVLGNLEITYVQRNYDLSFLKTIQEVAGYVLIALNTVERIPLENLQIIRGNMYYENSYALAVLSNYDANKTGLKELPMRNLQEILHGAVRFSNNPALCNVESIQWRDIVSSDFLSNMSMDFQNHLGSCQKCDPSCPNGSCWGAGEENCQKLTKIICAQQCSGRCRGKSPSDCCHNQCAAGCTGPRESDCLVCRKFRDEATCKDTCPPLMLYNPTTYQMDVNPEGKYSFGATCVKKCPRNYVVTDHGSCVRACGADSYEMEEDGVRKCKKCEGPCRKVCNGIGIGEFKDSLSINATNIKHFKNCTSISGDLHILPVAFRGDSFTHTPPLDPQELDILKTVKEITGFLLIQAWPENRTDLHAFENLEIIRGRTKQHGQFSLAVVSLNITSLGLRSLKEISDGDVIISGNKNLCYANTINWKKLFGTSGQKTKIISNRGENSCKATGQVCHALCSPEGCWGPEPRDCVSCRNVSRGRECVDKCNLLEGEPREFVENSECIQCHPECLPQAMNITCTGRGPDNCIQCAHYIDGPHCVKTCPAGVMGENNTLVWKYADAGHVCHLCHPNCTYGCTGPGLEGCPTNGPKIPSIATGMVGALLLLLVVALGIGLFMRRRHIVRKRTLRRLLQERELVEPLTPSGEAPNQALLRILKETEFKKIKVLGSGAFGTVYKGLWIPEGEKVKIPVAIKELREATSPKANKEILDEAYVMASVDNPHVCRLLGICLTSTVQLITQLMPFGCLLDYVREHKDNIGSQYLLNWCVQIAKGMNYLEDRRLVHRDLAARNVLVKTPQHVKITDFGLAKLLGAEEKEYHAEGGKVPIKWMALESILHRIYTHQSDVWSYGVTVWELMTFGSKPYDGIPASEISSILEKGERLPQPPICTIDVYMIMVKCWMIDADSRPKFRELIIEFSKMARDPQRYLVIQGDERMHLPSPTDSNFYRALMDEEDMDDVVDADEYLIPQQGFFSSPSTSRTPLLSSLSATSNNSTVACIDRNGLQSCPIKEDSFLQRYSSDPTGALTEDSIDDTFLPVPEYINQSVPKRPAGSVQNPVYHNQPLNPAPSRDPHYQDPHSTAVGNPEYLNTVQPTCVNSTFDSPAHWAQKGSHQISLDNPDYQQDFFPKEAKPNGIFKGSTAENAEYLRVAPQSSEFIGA
# T2 sequence (P08069 31-1367): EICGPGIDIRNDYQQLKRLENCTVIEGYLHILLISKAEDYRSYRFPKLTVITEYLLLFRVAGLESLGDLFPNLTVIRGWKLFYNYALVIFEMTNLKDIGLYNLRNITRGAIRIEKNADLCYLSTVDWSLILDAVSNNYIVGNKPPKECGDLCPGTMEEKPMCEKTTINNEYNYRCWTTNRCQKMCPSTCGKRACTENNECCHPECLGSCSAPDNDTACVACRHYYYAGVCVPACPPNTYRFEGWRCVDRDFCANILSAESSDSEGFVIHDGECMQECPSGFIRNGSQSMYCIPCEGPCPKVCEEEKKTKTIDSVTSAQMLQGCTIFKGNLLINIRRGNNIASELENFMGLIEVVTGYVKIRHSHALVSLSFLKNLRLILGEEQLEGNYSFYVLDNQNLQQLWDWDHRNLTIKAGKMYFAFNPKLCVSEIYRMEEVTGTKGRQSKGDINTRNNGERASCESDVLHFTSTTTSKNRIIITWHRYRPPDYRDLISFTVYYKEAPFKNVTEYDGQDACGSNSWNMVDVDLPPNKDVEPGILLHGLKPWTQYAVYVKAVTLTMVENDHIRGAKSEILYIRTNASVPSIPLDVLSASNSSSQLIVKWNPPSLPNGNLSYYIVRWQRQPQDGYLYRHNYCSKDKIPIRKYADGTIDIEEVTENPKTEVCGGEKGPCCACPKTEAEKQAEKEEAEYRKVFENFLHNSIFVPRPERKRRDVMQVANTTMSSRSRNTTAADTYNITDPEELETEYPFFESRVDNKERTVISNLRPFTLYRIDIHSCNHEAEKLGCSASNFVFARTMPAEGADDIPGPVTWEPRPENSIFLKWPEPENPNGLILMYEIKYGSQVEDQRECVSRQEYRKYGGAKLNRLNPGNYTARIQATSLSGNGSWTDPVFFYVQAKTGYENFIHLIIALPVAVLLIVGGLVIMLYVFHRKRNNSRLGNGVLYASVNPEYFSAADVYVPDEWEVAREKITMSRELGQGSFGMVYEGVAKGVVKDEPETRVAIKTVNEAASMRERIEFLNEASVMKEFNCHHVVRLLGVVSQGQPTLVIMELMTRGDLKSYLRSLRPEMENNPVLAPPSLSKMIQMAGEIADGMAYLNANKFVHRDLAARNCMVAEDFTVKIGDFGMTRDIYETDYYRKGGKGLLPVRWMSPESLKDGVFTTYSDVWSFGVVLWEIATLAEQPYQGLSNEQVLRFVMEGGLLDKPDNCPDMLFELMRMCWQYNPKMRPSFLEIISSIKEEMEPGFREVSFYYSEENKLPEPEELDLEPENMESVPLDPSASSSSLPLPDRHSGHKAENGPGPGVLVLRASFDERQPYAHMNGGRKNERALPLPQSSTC
# T3 sequence (P00533 25-1210 T790M/L858R): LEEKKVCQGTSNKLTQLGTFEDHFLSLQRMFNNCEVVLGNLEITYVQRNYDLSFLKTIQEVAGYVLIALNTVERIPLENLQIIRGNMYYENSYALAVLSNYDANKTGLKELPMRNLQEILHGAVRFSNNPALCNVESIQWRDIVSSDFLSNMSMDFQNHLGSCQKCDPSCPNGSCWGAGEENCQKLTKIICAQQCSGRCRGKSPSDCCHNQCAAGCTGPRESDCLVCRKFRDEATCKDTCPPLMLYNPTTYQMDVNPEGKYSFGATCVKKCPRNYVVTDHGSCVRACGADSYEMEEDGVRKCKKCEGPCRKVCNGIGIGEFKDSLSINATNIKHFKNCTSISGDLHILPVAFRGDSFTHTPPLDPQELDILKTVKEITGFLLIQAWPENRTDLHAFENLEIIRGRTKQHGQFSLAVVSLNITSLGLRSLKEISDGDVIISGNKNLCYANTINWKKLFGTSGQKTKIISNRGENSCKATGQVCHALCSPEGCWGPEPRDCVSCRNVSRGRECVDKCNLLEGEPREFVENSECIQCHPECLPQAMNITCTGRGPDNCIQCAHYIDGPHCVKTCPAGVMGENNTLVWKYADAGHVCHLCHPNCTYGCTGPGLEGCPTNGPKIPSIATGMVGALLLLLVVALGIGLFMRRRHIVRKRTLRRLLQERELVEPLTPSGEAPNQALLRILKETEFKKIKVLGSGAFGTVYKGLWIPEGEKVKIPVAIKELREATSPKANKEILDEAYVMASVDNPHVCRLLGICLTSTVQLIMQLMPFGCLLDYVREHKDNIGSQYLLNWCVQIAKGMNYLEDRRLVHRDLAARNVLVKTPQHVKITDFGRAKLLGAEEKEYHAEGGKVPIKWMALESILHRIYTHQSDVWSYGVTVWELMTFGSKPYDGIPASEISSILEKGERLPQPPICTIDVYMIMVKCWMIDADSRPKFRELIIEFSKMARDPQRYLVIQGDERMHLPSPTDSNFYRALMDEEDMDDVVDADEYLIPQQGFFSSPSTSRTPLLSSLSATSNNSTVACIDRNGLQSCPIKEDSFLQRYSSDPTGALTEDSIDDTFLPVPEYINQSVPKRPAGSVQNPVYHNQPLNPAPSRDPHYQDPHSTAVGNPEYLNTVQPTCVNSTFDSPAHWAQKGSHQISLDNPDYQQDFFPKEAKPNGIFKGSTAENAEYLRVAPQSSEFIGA
Compound,"pIC50 ([1]; A-431, SRB, 72 h)","pIC50 ([2]; NCI-H1975, SRB, 72 h)",pIC50 (EGFR^wt),pIC50 (IGF-1R),pIC50 (EGFR^T790M/L858R),"pIC50 ([1]; A-431, 72 h)","pIC50 ([2]; NCI-H1975, 72 h)",kinase inhibitory activity (in words) (EGFR^T790M/L858R; summary of Table 1)
"COc1ccc(NC(=O)/C=C/CN(C)C)cc1Nc1ncc(Cl)c(N(C)c2ccc3ccccc3c2)n1 [CCB145295, (E)-N-((3-((5-chloro-4-(N-methyl-(naphthalen-2-yl)amino))pyrimidin-2-yl)amino)-4-methoxyphenyl)-4-(dimethylamino)-2-butenamide]",5.97,5.93,7.03,< 6.00,7.33,,,
"COc1ccc(NC(=O)/C=C/CN(C)C)cc1Nc1ncc(Cl)c(Nc2ccc3ccccc3c2)n1 [CCB118563, (E)-N-((3-((5-chloro-4-((naphthalen-2-yl)amino))pyrimidin-2-yl)amino)-4-methoxyphenyl)-4-(dimethylamino)-2-butenamide]",,,6.58,7.83,7.74,5.95,6.51,
"COc1ccc(NC(=O)/C=C/CN2CCOCC2)cc1Nc1ncc(Cl)c(Nc2ccc3ccccc3c2)n1 [CCB120025, (E)-N-((3-((5-chloro-4-((naphthalen-2-yl)amino))pyrimidin-2-yl)amino)-4-methoxyphenyl)-4-(morpholin-1-yl)-2-butenamide]",,6.05,6.25,6.88,7.92,,,
"Cc1ccc(Nc2ncc(Cl)c(Nc3ccc4ccccc4c3)n2)cc1NC(=O)/C=C/CN(C)C [CCB145346, (E)-N-((5-((5-chloro-4-((naphthalen-2-yl)amino))pyrimidin-2-yl)amino)-2-methylphenyl)-4-(dimethylamino)-2-butenamide]",5.98,6.22,5.94,6.70,7.25,,,
"C=CC(=O)Nc1cc(CN(C)CCN(C)C)cc(Nc2ncc(Cl)c(Nc3ccc4ccccc4c3)n2)c1 [CCB120069, N-((3-((5-chloro-4-((naphthalen-2-yl)amino))pyrimidin-2-yl)amino)-5-((N-methyl-N-dimethylaminoethyl)methylamine)phenyl)acrylamide]",6.27,6.83,6.88,8.05,8.41,,,potent
"COc1ccc(NC(=O)/C=C/CN(C)C)cc1Nc1ncc(Cl)c(Nc2cnc3ccccc3c2)n1 [CCB145221, (E)-N-((3-((5-chloro-4-((quinolin-3-yl)amino))pyrimidin-2-yl)amino)-4-methoxyphenyl)-4-(dimethylamino)-2-butenamide]",6.19,6.77,6.07,7.90,7.42,,,
"COc1ccc(NC(=O)/C=C/CN(C)C)cc1Nc1ncc(C)c(Nc2ccc3ccccc3c2)n1 [CCB145289, (E)-N-((3-((5-methyl-4-((naphthalen-2-yl)amino))pyrimidin-2-yl)amino)-4-methoxyphenyl)-4-(dimethylamino)-2-butenamide]",6.08,6.00,6.63,6.99,7.14,,,
"COc1ccc(NC(=O)/C=C/CN(C)C)cc1Nc1ncc(Cl)c(Oc2ccc3ccccc3c2)n1 [CCB145260, (E)-N-((3-((5-chloro-4-((naphthalen-2-yl)oxy))pyrimidin-2-yl)amino)-4-methoxyphenyl)-4-(dimethylamino)-2-butenamide]",4.75,5.69,< 5.00,6.53,6.53,,,
"CC(C)Oc1ccc(NC(=O)/C=C/CN(C)C)cc1Nc1ncc(Br)c(Nc2ccc3ccccc3c2)n1 [CCB145385, (E)-N-((3-((5-bromo-4-((naphthalen-2-yl)amino))pyrimidin-2-yl)amino)-4-isopropoxyphenyl)-4-(dimethylamino)-2-butenamide]",5.12,5.24,5.44,6.50,6.75,,,
"C=CC(=O)Nc1cc(Nc2ncc(Cl)c(Nc3ccc4ccccc4c3)n2)c(OC)cc1N(C)CCNC [CCB4580030, N-((5-((5-chloro-4-(naphthalene-2-ylamino)pyrimidine-2-yl)amino)-4-methoxy-2-(methyl(2-methylamino)ethyl)amino)phenyl)acrylamide]",,,8.51,8.11,8.66,,,
"C=CC(=O)Nc1cc(Nc2nccc(-c3cn(C)c4ccccc34)n2)c(OC)cc1N(C)CCN(C)C [AZD9291, reference compound]",,,,< 6.00,,,,
"COc1ccc(NC(=O)/C=C/CN2CCN(C(C)=O)CC2)cc1Nc1ncc(Cl)c(Nc2ccc3ccccc3c2)n1 [CCB120029, (E)-N-((3-((5-chloro-4-((naphthalen-2-yl)amino))pyrimidin-2-yl)amino)-4-methoxyphenyl)-4-(4-acetylpiperazin-1-yl)-2-butenamide]",,5.98,6.16,7.00,7.72,,,
"C=CC(=O)Nc1cccc(Nc2nc(Nc3ccc(N4CCN(C(C)=O)CC4)cc3OC)ncc2C(F)(F)F)c1 [CO1686, reference compound]",6.01,6.67,,5.88,,,,
